The structures appear in SMILES notation.

Data set [1] can be described thus: Surface temperature of heating element while heating the heat-not-burn cigarette (infrared thermal imager).
Experimental: The heat-not-burn cigarette prepared by the above preparation method is heated by an aerosol generation apparatus (by means of resistance heating), and surface temperature of a heating element in a working state is tested by an infrared thermal imager.
Data set [2] is described as follows: Comparison test on atomization (smoking machine, Cambridge filter, conversion rate k). Type of data set: physicochemical. Particulars: concentrations 1-15%.
The next data set deals with smokers. Kind of data set: Comparison test on puff experience (scores by multiple smokers). It is filed as in vivo. Particulars: same content (3%). From the text:
An arecoline salt and an arecoline hydrobromide of the same content (3%) are selected for puff experience tests, and scores are given from 0 to 5 in terms of pleasure, increased heart rate, ruddy face, body fever, slight sweating and so on by evaluation of multiple smokers.

A short description of data set [3]: Physicochemical analysis: appearance on standing at room temperature. Particulars: salt prepared at molar ratio of arecoline to benzoic acid of 1; viscous yellow oily substance.

Take `COC(=O)C1=CCCN(C)C1.O=C(O)c1ccccc1` [arecoline salt, benzoate of arecoline]: the “Temperature at which the arecoline salt in the cigarette can be atomized” value in data set [1] (in heat-not-burn cigarette, generates a smokable aerosol) was 150-250 °C. Further, the “Puff duration (temperature) 1 s” value in data set [1] (surface temperature of heating element, resistance heating, heat-not-burn cigarette containing arecoline salt, puff duration 1 s) was 153.1 °C. Besides, in data set [1] (surface temperature of heating element, resistance heating, heat-not-burn cigarette containing arecoline salt, puff duration 2 s), the “Puff duration (temperature) 2 s” value stood at 228.3 °C. Further, the “Puff duration (temperature) 3 s” value in data set [1] (surface temperature of heating element, resistance heating, heat-not-burn cigarette containing arecoline salt, puff duration 3 s) was found to be 241.1 °C. Besides, the “Conversion rate compared with arecoline hydrobromide” value in data set [2] was “obviously higher than that of the arecoline hydrobromide”. Also, the “Puff experience compared with arecoline hydrobromide (pleasure, increased heart rate, ruddy face, body fever, slight sweating)” value with smokers was “obviously superior to the arecoline hydrobromide”. Moreover, the “Change of appearance when placed at room temperature” value in data set [3] is “darkens slowly when placed at room temperature”.

Values taken from patent US12690608B2, “Arecoline salt and preparation method and product thereof” (priority 2020, dated 2026).
